# Test system: murine squamous cell carcinoma (SCC VII)
# Assay: Antitumor effect (tumor size) in both-side side-abdomen implanted SCC VII tumor-bearing mice
# Format: in vivo, C3H/He Slc mice
# Settings: for antitumor effect (tumor size), tumor with administration of the drug (treated group): FIG. 1A, intratumoral administration on Day 0, 3, 6, compared to MOCK (saline solution), C-REV 1×10^6 pfu/100 μl, cGAMP 20 μg/100 μl; for antitumor effect (tumor size), tumor spaced apart from the tumor with administration of the drug (non-treated group): FIG. 1B / FIG. 2, tumor on opposite side of the abdomen received saline solution only, drug given to the other tumor on Day 0, 3, 6
# Excerpt: Six-week-old female C3H/He Slc mice (purchased from Chubu Kagaku Shizai Co., Ltd.) were used as mice. A tumor of murine squamous cell carcinoma (SCC VII; given by professor Shin-ichiro Masunaga, Kyoto University Institute for Integrated Radiation and Nuclear Science) was cut into 2 mmcubes, and two of the cubes were implanted under the skin on both sides of the abdomen of the mice by a tumor implantation needle (both-side side-abdomen implanted model). When the size of the tumor reached the size of 100 mm^3, grouping was performed. Although differing among the mice, one tumor end and the other tumor end were spaced apart from each other by about 10 mm.
# First medicine: C-REV was suspended in a saline solution to obtain a concentration of 1×10^6 pfu/100 μl.
# Second medicine: 2′3′-cGAMP (No. tlrl-nacga23 by Invivogen) was dissolved and suspended in a saline solution to obtain a concentration of 20 μg/100 μl.
# Day 0: The first medicine of 100 μl was administered to a tumor (treated group) on one side of the abdomen. Further, a saline solution of 100 μl was administered to a tumor (non-treated group) on the other side of the abdomen. Day 3: The second medicine of 100 μl was administered to a tumor (treated group) on one side of the abdomen. Further, a saline solution of 100 μl was administered to a tumor (non-treated group) on the other side of the abdomen. Day 6: The second medicine of 100 μl was administered to a tumor (treated group) on one side of the abdomen. Further, a saline solution of 100 μl was administered to a tumor (non-treated group) on the other side of the abdomen.
# The tumor size was calculated from multiplication of the longer diameter by the shorter diameter by the shorter diameter by 1/2 of a tumor.
# (§1) The experiment was performed in the same procedure as for Example 1 except for administration of a saline solution of 100 μl on Day 3 and Day 6 instead of the administration of the second medicine to the treated group.
# as §1, with “Example 1 except for administration of the second medicine on Day 0 instead of the administration of the first medicine to the treated group and except for” for “Example 1 except for”
# as §1, with “Example 1 except for administration of a saline solution of 100 μl on Day 0 instead of the administration of the first medicine to the treated group and except for” for “Example 1 except for”
# The experiment was performed in the same procedure as for Example 1 except for use of the hrR3 instead of the C-REV as the first medicine. […]
Compound,"antitumor effect (tumor size), tumor with administration of the drug (treated group)","antitumor effect (tumor size), tumor spaced apart from the tumor with administration of the drug (non-treated group)"
"Nc1nc2c(ncn2[C@@H]2O[C@@H]3COP(=O)(O)O[C@H]4[C@@H](O)[C@H](n5cnc6c(N)ncnc65)O[C@@H]4COP(=O)(O)O[C@@H]2[C@@H]3O)c(=O)[nH]1 [cGAMP, 2′3′-cyclic GMP-AMP]",an antitumor effect was developed,almost no antitumor effect
Canerpaturev [C-REV],an antitumor effect was developed,almost no antitumor effect

# From US20220273739A1, “COMBINATION DRUG FOR TREATING MALIGNANT TUMOR, PHARMACEUTICAL COMPOSITION FOR TREATING MALIGNANT TUMOR, AND PHARMACEUTICAL COMPOSITION FOR MALIGNANT TUMOR TREATMENT” (priority 2019, published 2022)
